Columns and labels:
[1] = Plasma insulin and plasma glucose in STZ-treated mice without or with insulin; type: in vivo
Excerpt: Animals Fifteen-week-old ob/ob mice and their wild-type C57BL/6 mice were obtained from CharlesRiver Breeding Laboratories (Wilmington, Mass.). Male mice were housed in colony cages, maintained on a 12-h light/12-h dark cycle. Our high-fat diet contains oil 1152 g (from Benibana, Japan; safflower oil [high-oleic type] contained 46% oleic acid (18:1n-9) and 45% linoleic acid (18:2n-6) from total fatty acids), casein 1191.6 g (Oriental Yeast, Tokyo, Japan, No.19), sucrose 633.6 g (Oriental Yeast, No. 13), vitamin mix 50.4 g (Oriental Yeast, No. 20 (AIN76), mineral mix 352.8 g (Oriental Yeast, No.25 (AIN76), cellulose powder 201.6 g (Oriental Yeast, No.19), DL-methionine 18 g (Wako Pure Chemicals, Osaka, Japan), water 360 ml; total 3600 g (20). Plasma insulin was measured by an insulin immunoassay (Shibayagi, Gunma, Japan). The animal care and procedures were approved by the Animal Care Committee of the University of Tokyo.
(§1) STZ Treatments Diabetes was induced by a double intraperitoneal injection of 0.2-0.3 ml of 50 mM sodium citrate solution (pH 4.5) containing STZ (200 mg/kg body weight). Control (non-STZ) mice were injected with 50 mM sodium citrate solution (pH 4.5). Three days after injection, plasma glucose levels were checked and diabetes was confirmed (glucose level >250 mg/dl). A combination of human regular insulin (1 units/kg; Eli Lilly, Indianapolis, Ind.), each given in 0.2 ml of saline was administered to the STZ+ insulin group. The mice in the STZ+ vehicle and non-STZ groups received 0.2 ml of saline injected both intraperitoneally. After injection of INS or saline, the animals were fasted for 6 h and then hindlim's skeletal muscles were removed.

AdipoR1 mRNA = AdipoR1 mRNA in skeletal muscle of STZ-treated mice (real-time PCR); type: in vivo; details: FIG. 2C
Experimental: as §1
(§2) Quantitative analysis of AdipoR1 and R2 transcripts by Northern blot and Real-time PCR Total RNA was prepared from cells or tissues with TRIzol (GIBCO/BRL) according to the manufacturer's instructions. For quantification of AdipoRs mRNAs, we employed the real-time PCR method (14). The primer sets and the probes for mAdipoR1,2 were as follows; the forward primer for mAdipoR1 was […], the reverse primer, […] and the probe, […]; the forward primer for mAdipoR2 was […], the reverse primer, […] and the probe, […]. The relative amount of each AdipoR transcript was normalized to the amount of actin transcript in the same cDNA (14).

AdipoR2 mRNA = AdipoR2 mRNA in skeletal muscle of STZ-treated mice (real-time PCR); type: in vivo; details: FIG. 2D
Experimental: as §1, §2

[2] = test system: membrane fractions of skeletal muscle; assay: [125I]adiponectin binding assay on membrane fractions of skeletal muscle; details: wild-type vs ob/ob mice; FIGS. 5A, 5B
Experimental: Binding Assay Synthetic adiponectin was ^125I-labeled at Tyr by IODO-beads (Pierce) in the presence of Na^125I (2,000 Ci/mmol, Amersham Pharmacia Biotech) according to the manufacturer's protocol. Membrane fractions of muscles were incubated at 4° C. for 1 hr with binding buffer (ice-cold phosphate-buffered saline/0.1% bovine serum albumin) containing designated concentrations of [^125I]adiponectin (5,000 cpm/ng protein) plus unlabeled competitors. […] The cells were then washed three times with ice-cold phosphate-buffered saline, lysed in 0.1 N NaOH/0.1% SDS, and the cell-bound radioactivity was determined using a γ-counter (14). Nonspecific binding was determined using a 200-fold excess of unlabeled adiponectin. Specific binding was calculated by subtracting nonspecific binding from the total binding. The values presented in the “Results” represent an average of triplicate determinations of 3-10 experiments.

AMPK = assay: Adiponectin tolerance test: AMPK phosphorylation in skeletal muscle (Western blot); type: in vivo, mice; details: 50 μg/10 g body weight, 5 min, FIGS. 5C, 5D
Experimental: Generation of recombinant adiponectin, adiponectin tolerance test and Western blot analysis Bacterially expressed murine full-length adiponectin (Ad) was generated as previously described (10, 14). […] Skeletal muscles were isolated 5 min after adiponectin injection. Phosphorylation and amount of AMPK in keletal muscles were determined (10, 14).

[3] = skeletal muscle, STZ-treated mice given insulin
[4] = skeletal muscle of STZ-treated mice

insulin: human regular insulin (Eli Lilly) in vivo; insulin added to hepatocytes and C2C12 myocytes in vitro
plasma glucose levels ([1]; STZ plus insulin (1 units/kg) compared with STZ alone, FIG. 2B lanes 2, 3): reduced | AdipoR1 mRNA after insulin treatment (AdipoR1 mRNA; [3]): restored nearly completely | AdipoR2 mRNA after insulin treatment (AdipoR2 mRNA; [3]): restored nearly completely

CN(N=O)C(=O)N[C@H]1C(O)O[C@H](CO)[C@@H](O)[C@@H]1O (mixture of isomers) [STZ, streptozotocin]
plasma insulin ([1]; STZ 200 mg/kg intraperitoneal, mice fasted 6 h, FIG. 2A): abolished | plasma glucose ([1]; STZ-treated vs control mice, fasted 6 h, FIG. 2B lanes 1, 2): significant marked increase | increase in AdipoR1 mRNA (AdipoR1 mRNA; [4]): 103% | increase in AdipoR2 mRNA (AdipoR2 mRNA; [4]): 38%

B1: adiponectin: bacterially expressed murine full-length adiponectin; 125I-labeled adiponectin (globular or full-length) in the binding assay (protein)
chain: EDDVTTTEELAPALVPPPKGTCAGWMAGIPGHPGHNGTPGRDGRDGTPGEKGEKGDAGLLGPKGETGDVGMTGAEGPRGFPGTPGRKGEPGEAAYVYRSAFSVGLETRVTVPNVPIRFTKIFYNQQNHYDGSTGKFYCNIPGLYYFSYHITVYMKDVKVSLFKKDKAVLFTYDQYQEKNVDQASGSVLLHLEVGDQVWLQVYGDGDHNGLYADNVNDSTFTGFLLYHDTN
adiponectin binding to the membrane fractions of skeletal muscle [2]: higher binding to the membrane fractions of skeletal muscle of wild-type mice than ob/ob mice | AMPK activation in skeletal muscle (AMPK; ob/ob mice (implied)): unable to activate AMPK | AMPK activation in skeletal muscle (AMPK; wild-type mice): able to activate AMPK

Reference: US20070238649A1, “Agents for Regulating Adiponectin Receptor Expression” (priority 2004, published 2007)
